In ChEMBL document CHEMBL1151025, “Synthesis and influenza neuraminidase inhibitory activity of aromatic analogues of sialic acid” (Bioorg Med Chem Lett, 1995):

Assays:
[1] = Compound was tested for Inhibition of influenza A [influenza A/Shandong/09/93 (H3N2)] neuraminidase; set-up: species or system Influenza A virus
MDCK = test: Inhibitory activity against Influenza virus in MDCK cells; assay type: functional, cell-based; conditions: Canis lupus familiaris

## CC(=O)Nc1c(NC(=N)N)cc(C(=O)O)cc1[C@H](O)[C@H](O)CO
[1]
  IC50: > 100 µM
  Ki: > 100 µM

## CC(=O)N[C@H]1[C@H]([C@H](O)[C@H](O)CO)OC(C(=O)O)=C[C@@H]1NC(=N)N [ZANAMIVIR]
MDCK
  EC50: 0.04 µM
[1]
  IC50: 0.005 µM
  Ki: 0.001 µM
